The target of this assay is human LPAR1 (Homo sapiens (Human), UniProt Q92633). As to the kind of experiment: LPAR1 intracellular calcium mobilization assay (antagonist mode, FLIPR). Type of assay: cell-based. Conditions: CHO-K1 EDG2 cells expressing human LPAR1, LPA 18:2 at EC80 (100 nM), test compound 0.5 nM to 10 μM. For orientation: Calcium flux is commonly read through the fluorescence of an indicator in the cells.
Sequence of human LPAR1 (Q92633 whole entry): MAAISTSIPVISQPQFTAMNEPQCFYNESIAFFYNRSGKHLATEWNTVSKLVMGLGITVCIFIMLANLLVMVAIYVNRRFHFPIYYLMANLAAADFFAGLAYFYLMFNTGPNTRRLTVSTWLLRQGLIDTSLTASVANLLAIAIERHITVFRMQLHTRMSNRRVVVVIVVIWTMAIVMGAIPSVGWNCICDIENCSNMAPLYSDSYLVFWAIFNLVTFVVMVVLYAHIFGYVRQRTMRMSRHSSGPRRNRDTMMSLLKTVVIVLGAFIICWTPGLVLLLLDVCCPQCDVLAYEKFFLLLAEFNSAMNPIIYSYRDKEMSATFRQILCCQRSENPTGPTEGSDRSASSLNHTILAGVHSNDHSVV
Broadly, the EC50 is the concentration that produces a half-maximal response. Consider `C[C@@H]1CCN(C(=O)Nc2ccc(-c3nnn(C)c3NC(=O)O[C@H](C)c3cccnc3Cl)nc2)C1` [Compound 190, (R)-1-(2-chloropyridin-3-yl)ethyl (1-methyl-4-(5-((R)-3-methylpyrrolidine-1-carboxamido)pyridin-2-yl)-1H-1,2,3-triazol-5-yl)carbamate], for which the EC50 was 359 nM.

`C[C@@H](OC(=O)Nc1c(-c2ccc(NC(=O)C3(C#N)CCNCC3)cn2)nnn1C)c1cc(F)cnc1F` [Compound 299, (R)-1-(2,5-difluoropyridin-3-yl)ethyl (4-(5-(4-cyanopiperidine-4-carboxamido)pyridin-2-yl)-1-methyl-1H-1,2,3-triazol-5-yl)carbamate]: the EC50 came out at 4990 nM.

For `C[C@@H](OC(=O)Nc1c(-c2ncc(NC(=O)[C@]3(C#N)C[C@H]3C(F)F)cn2)nnn1C)c1cc(F)cnc1Cl` [Compound 286, (R)-1-(2-chloro-5-fluoropyridin-3-yl)ethyl (4-(5-((1R,2R)-1-cyano-2-(difluoromethyl)cyclopropane-1-carboxamido)pyrimidin-2-yl)-1-methyl-1H-1,2,3-triazol-5-yl)carbamate], the EC50 worked out at 104 nM.

Take `COC(=O)Nc1ccc(-c2nnn(C)c2NC(=O)O[C@H](C)c2cccnc2Cl)nc1` [Compound 17, (R)-1-(2-chloropyridin-3-yl)ethyl (4-(5-((methoxycarbonyl)amino)pyridin-2-yl)-1-methyl-1H-1,2,3-triazol-5-yl)carbamate]: the EC50 turned out to be 29.3 nM.

With `C[C@@H](OC(=O)Nc1c(-c2ccc(NC(=O)C3CC(NC4CC4)C3)cn2)nnn1C)c1cccnc1Cl` (some centres unmarked) [Compound 311], the EC50 is 1530 nM.

In the case of `C[C@@H](OC(=O)Nc1c(-c2ccc(NC(=O)c3ccc(C(F)F)nc3)cn2)nnn1C)c1cccnc1F` [Compound 295, (R)-1-(2-fluoropyridin-3-yl)ethyl (4-(5-(6-(difluoromethyl)nicotinamido)pyridin-2-yl)-1-methyl-1H-1,2,3-triazol-5-yl)carbamate], the EC50 was found to be 391 nM.

As for `C[C@@H](OC(=O)Nc1c(-c2ccc(NC(=O)C3(C(F)F)CC3)cn2)nnn1C)c1cccnc1Cl` [Compound 116, (R)-1-(2-chloropyridin-3-yl)ethyl (4-(5-(1-(difluoromethyl)cyclopropane-1-carboxamido)pyridin-2-yl)-1-methyl-1H-1,2,3-triazol-5-yl)carbamate], the EC50 was determined as 322 nM.

For `C[C@@H](OC(=O)Nc1c(-c2ccc(NC(=O)C3COC3)cn2)nnn1C)c1cccnc1Cl` [Compound 57, (R)-1-(2-chloropyridin-3-yl)ethyl (1-methyl-4-(5-(oxetane-3-carboxamido)pyridin-2-yl)-1H-1,2,3-triazol-5-yl)carbamate], the EC50 is 339 nM.

Take `C[C@@H](OC(=O)Nc1c(-c2ccc(NC(=O)C3(CN)CC(F)(F)C3)cn2)nnn1C)c1cc(F)cnc1F` [Compound 301, (R)-1-(2,5-difluoropyridin-3-yl)ethyl (4-(5-(1-(aminomethyl)-3,3-difluorocyclobutane-1-carboxamido)pyridin-2-yl)-1-methyl-1H-1,2,3-triazol-5-yl)carbamate]: the EC50 is 66.9 nM.

With `C[C@@H](OC(=O)Nc1c(-c2ccc(NC(=O)[C@@H]3C[C@H]3F)cn2)nnn1C)c1cc(F)cnc1F` [Compound 161, (R)-1-(2,5-difluoropyridin-3-yl)ethyl (4-(5-((1S,2R)-2-fluorocyclopropane-1-carboxamido)pyridin-2-yl)-1-methyl-1H-1,2,3-triazol-5-yl)carbamate], the EC50 came out at 66.8 nM.

As for `Cc1ncc(F)cc1[C@@H](C)OC(=O)Nc1c(-c2ccc(NC(=O)[C@@H]3CC3(F)F)cn2)nnn1C` [Compound 180, (R)-1-(5-fluoro-2-methylpyridin-3-yl)ethyl (4-(5-((S)-2,2-difluorocyclopropane-1-carboxamido)pyridin-2-yl)-1-methyl-1H-1,2,3-triazol-5-yl)carbamate], the EC50 was determined as 123 nM.

Take `C[C@@H](OC(=O)Nc1c(-c2ccc(NC(=O)c3cnc(C(F)F)nc3)cn2)nnn1C)c1cccnc1Cl` [Compound 206, (R)-1-(2-chloropyridin-3-yl)ethyl (4-(5-(2-(difluoromethyl)pyrimidine-5-carboxamido)pyridin-2-yl)-1-methyl-1H-1,2,3-triazol-5-yl)carbamate]: the EC50 is 71.8 nM.

For `C[C@H](O)C(=O)Nc1ccc(-c2nnn(C)c2NC(=O)O[C@H](C)c2cccnc2Cl)nc1` [Compound 125, (R)-1-(2-chloropyridin-3-yl)ethyl (4-(5-((S)-2-hydroxypropanamido)pyridin-2-yl)-1-methyl-1H-1,2,3-triazol-5-yl)carbamate], the EC50 came out at 2710 nM.

Consider `C[C@@H](OC(=O)Nc1c(-c2ccc(NC(=O)C3(C#N)CC34CCCC4)cn2)nnn1C)c1cccnc1Cl` (stereo partly drawn) [Compound 89, (R)-1-(2-chloropyridin-3-yl)ethyl (4-(5-(1-cyanospiro[2.4]heptane-1-carboxamido)pyridin-2-yl)-1-methyl-1H-1,2,3-triazol-5-yl)carbamate], for which the EC50 was found to be 312 nM.

With `C[C@@H](OC(=O)Nc1c(-c2ccc(NC(=O)c3ccc(C(F)(F)F)nc3)cn2)nnn1C)c1cc(F)cnc1F` [Compound 242, (R)-1-(2,5-difluoropyridin-3-yl)ethyl (1-methyl-4-(5-(6-(trifluoromethyl)nicotinamido)pyridin-2-yl)-1H-1,2,3-triazol-5-yl)carbamate], the EC50 was found to be 63.3 nM.

`C[C@@H](OC(=O)Nc1c(-c2cnc(NC(=O)c3ccc(C(F)(F)F)nc3)cn2)nnn1C)c1cc(F)cnc1F` [Compound 322, (R)-1-(2,5-difluoropyridin-3-yl)ethyl (1-methyl-4-(5-(6-(trifluoromethyl)nicotinamido)pyrazin-2-yl)-1H-1,2,3-triazol-5-yl)carbamate]: the EC50 stood at 170 nM.

With `C[C@@H](OC(=O)Nc1c(-c2ccc(NC(=O)c3ccc(=O)n(C)c3)cn2)nnn1C)c1cc(F)cnc1F` [Compound 236, (R)-1-(2,5-difluoropyridin-3-yl)ethyl (1-methyl-4-(5-(1-methyl-6-oxo-1,6-dihydropyridine-3-carboxamido)pyridin-2-yl)-1H-1,2,3-triazol-5-yl)carbamate], the EC50 was 1660 nM.

As for `C[C@@H](OC(=O)Nc1c(-c2cnc(NC(=O)C3(C#N)CC3)cn2)nnn1C)c1cccnc1Cl` [Compound 8, (R)-1-(2-chloropyridin-3-yl)ethyl (4-(5-(1-cyanocyclopropane-1-carboxamido)pyrazin-2-yl)-1-methyl-1H-1,2,3-triazol-5-yl)carbamate], the EC50 came to 154 nM.

Consider `CC#CC(=O)Nc1ccc(-c2nnn(C)c2NC(=O)O[C@H](C)c2cccnc2Cl)nc1` [Compound 76, (R)-1-(2-chloropyridin-3-yl)ethyl (4 (5-(but-2-ynamido)pyridin-2-yl)-1-methyl-1H-1,2,3-triazol-5-yl)carbamate], for which the EC50 is 275 nM.

Turning to `C[C@@H](OC(=O)Nc1c(-c2ccc(NC(=O)c3cnc(N(C)C)nc3)cn2)nnn1C)c1cc(F)cnc1F` [Compound 282, (R)-1-(2,5-difluoropyridin-3-yl)ethyl (4-(5-(2-(dimethylamino)pyrimidine-5-carboxamido)pyridin-2-yl)-1-methyl-1H-1,2,3-triazol-5-yl)carbamate], the EC50 came out at 1190 nM.

Source of the values: US11912686B2 (Gilead Sciences, Inc., priority 2020, dated 2024).
